Results published in patent US11759455B2, “Substituted 1H-imidazo[4,5-b]pyridin-2(3H)-ones and their use as GLUN2B receptor modulators” (JANSSEN PHARMACEUTICA NV, priority 2016, dated 2023).
Read-outs that look alike come from different tables or passages of the source.

Biological target: T1, human GluN1/GluN2B NMDA receptors (Homo sapiens, UniProt Q13224)
T1 construct: expressed in transfected cells
Assay: Cell-based calcium flux (FLIPR) assay on cloned human NR1/NR2B ion channels expressed in mammalian cells (standard and HTS buffer variants);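 also: stable Tet-On inducible cell line, Ca2+ influx triggered by glutamate at about EC40 plus 10 µM glycine, fluorescent dye read-out over 5 min, normalized to control wells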
Settings: human GluN1/GluN2B cells

[1] = standard assay buffer (0.5 mM MgCl2 dye loading; 137 mM NaCl, 4 mM KCl assay buffer), read-out: NR2B IC50 (μM) standard assay
[2] = HTS assay buffer (1.5 mM MgCl2 dye loading; 150 mM NaCl, 3 mM KCl assay buffer), read-out: NR2B IC50 (μM) HTS assay

T1 sequence (Q13224 27-1484, other chains not shown): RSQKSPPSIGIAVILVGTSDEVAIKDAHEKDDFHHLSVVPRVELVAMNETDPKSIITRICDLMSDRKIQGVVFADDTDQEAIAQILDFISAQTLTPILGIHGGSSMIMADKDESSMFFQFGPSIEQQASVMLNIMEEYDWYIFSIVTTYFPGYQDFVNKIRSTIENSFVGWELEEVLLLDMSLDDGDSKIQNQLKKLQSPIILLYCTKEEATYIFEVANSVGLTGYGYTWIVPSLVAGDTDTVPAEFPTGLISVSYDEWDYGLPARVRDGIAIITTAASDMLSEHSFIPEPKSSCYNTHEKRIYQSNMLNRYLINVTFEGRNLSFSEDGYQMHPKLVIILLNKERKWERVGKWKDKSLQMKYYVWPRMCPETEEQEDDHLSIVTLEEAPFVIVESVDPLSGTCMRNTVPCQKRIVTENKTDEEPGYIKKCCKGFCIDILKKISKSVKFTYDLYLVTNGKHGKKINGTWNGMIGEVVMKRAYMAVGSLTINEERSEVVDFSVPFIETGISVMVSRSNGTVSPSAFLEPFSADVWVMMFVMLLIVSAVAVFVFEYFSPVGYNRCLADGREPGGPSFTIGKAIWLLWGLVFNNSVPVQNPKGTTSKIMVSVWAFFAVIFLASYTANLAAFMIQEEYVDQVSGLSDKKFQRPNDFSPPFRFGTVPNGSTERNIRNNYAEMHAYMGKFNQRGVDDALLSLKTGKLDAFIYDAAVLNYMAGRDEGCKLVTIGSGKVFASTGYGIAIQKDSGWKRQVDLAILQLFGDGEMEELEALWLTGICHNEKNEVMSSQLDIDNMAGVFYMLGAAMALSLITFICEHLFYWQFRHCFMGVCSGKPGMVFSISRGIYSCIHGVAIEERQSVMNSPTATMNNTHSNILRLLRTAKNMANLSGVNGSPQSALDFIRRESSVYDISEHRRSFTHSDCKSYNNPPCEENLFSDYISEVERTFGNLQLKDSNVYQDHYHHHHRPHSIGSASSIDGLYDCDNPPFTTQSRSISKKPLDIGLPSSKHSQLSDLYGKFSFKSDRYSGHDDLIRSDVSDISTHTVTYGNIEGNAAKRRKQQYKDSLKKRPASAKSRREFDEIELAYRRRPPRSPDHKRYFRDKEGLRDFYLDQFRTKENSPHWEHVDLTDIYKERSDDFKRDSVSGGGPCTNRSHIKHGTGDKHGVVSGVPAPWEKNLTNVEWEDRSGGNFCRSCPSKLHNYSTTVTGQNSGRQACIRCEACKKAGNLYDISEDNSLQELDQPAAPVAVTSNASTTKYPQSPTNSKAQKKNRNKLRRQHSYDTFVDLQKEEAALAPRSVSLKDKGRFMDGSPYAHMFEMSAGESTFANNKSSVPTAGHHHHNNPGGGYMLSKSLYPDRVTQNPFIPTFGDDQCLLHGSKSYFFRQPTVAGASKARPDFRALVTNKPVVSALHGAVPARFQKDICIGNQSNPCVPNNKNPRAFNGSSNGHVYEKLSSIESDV

| Compound | IC50 [1] [µM] | IC50 [2] [µM] |
| --- | --- | --- |
| O=c1[nH]c2ncc(-c3cccc(C(F)(F)F)c3)cc2n1Cc1cccc(Cl)c1 [Example 21, 1-[(3-Chlorophenyl)methyl]-6-[3-(trifluoromethyl)phenyl]-3H-imidazo[4,5-b]pyridin-2-one] | 1.34 |  |
| COc1ncccc1Cn1c(=O)[nH]c2ncc(-c3cccc(C(F)(F)F)c3)cc21 [Example 22, 1-[(2-Methoxy-3-pyridyl)methyl]-6-[3-(trifluoromethyl)phenyl]-3H-imidazo[4,5-b]pyridin-2-one] | 26.7 |  |
| O=c1[nH]c2ncc(-c3cccc(C(F)(F)F)c3)cc2n1Cc1ccncn1 [Example 23, 1-(Pyrimidin-4-ylmethyl)-6-[3-(trifluoromethyl)phenyl]-3H-imidazo[4,5-b]pyridin-2-one] | 0.22 |  |
| Cn1c(=O)n(CC(=O)N2CCC2)c2cc(-c3ccc(C(F)(F)F)s3)cnc21 [Example 27, 1-[2-(Azetidin-1-yl)-2-oxo-ethyl]-3-methyl-6-[5-(trifluoromethyl)-2-thienyl]imidazo[4,5-b]pyridin-2-one] | 0.031 |  |
| CN(C)C(=O)Cn1c(=O)n(C)c2ncc(-c3ccc(C(F)(F)F)s3)cc21 [Example 28, N,N-Dimethyl-2-[3-methyl-2-oxo-6-[5-(trifluoromethyl)-2-thienyl]imidazo[4,5-b]pyridin-1-yl]acetamide] | 0.034 |  |
| Cn1c(=O)n(CC(=O)N2CC(F)C2)c2cc(-c3cccc(C(F)(F)F)c3)cnc21 [Example 34, 1-[2-(3-Fluoroazetidin-1-yl)-2-oxo-ethyl]-3-methyl-6-[3-(trifluoromethyl)phenyl]imidazo[4,5-b]pyridin-2-one] | 0.065 |  |
| COc1ccc(-c2cnc3[nH]c(=O)n(CC(=O)N4CCCC4)c3c2)cc1 [Example 35, 6-(4-Methoxyphenyl)-1-(2-oxo-2-pyrrolidin-1-yl-ethyl)-3H-imidazo[4,5-b]pyridin-2-one] |  | 2.14 |
| COc1ccc(-c2cnc3[nH]c(=O)n(CC(=O)NC4CC4)c3c2)c(Cl)c1 [Example 37, 2-[6-(2-Chloro-4-methoxy-phenyl)-2-oxo-3H-imidazo[4,5-b]pyridin-1-yl]-N-cyclopropyl-acetamide] |  | 1.38 |

More lines, now with the values ahead:

| IC50 [1] [µM] | IC50 [2] [µM] | Compound |
| --- | --- | --- |
| 0.124 |  | Cc1cc(Cn2c(=O)[nH]c3ncc(-c4cccc(C(F)(F)F)c4)cc32)no1 [Example 19, 1-[(5-Methylisoxazol-3-yl)methyl]-6-[3-(trifluoromethyl)phenyl]-3H-imidazo[4,5-b]pyridin-2-one] |
| 0.07 |  | O=C(Cn1c(=O)[nH]c2ncc(-c3cccc(C(F)(F)F)c3)cc21)N1CCC1 [Example 25, 1-[2-(Azetidin-1-yl)-2-oxo-ethyl]-6-[3-(trifluoromethyl)phenyl]-3H-imidazo[4,5-b]pyridin-2-one] |
| 0.012 |  | CN(C)C(=O)Cn1c(=O)[nH]c2ncc(-c3ccc(C(F)(F)F)s3)cc21 [Example 26, N,N-Dimethyl-2-[2-oxo-6-(5-(trifluoromethyl)-2-thienyl]-3H-imidazo[4,5-b]pyridin-1-yl)acetamide] |
| 0.396 |  | Cc1ccc(C(F)(F)F)cc1-c1cnc2[nH]c(=O)n(CC(=O)N3CCC3)c2c1 [Example 29, 1-[2-(Azetidin-1-yl)-2-oxo-ethyl]-6-[2-methyl-5-(trifluoromethyl)phenyl]-3H-imidazo[4,5-b]pyridin-2-one] |
| 0.011 |  | CCC(=O)Cn1c(=O)[nH]c2ncc(-c3ccc(F)c(C)c3F)cc21 [Example 30, 6-(2,4-Difluoro-3-methyl-phenyl)-1-(2-oxobutyl)-3H-imidazo[4,5-b]pyridin-2-one] |
| 8.33 |  | O=c1[nH]cccc1Cn1c(=O)[nH]c2ncc(-c3cccc(C(F)(F)F)c3)cc21 [Example 32, 1-[(2-Oxo-1H-pyridin-3-yl)methyl]-6-[3-(trifluoromethyl)phenyl]-3H-imidazo[4,5-b]pyridin-2-one] |
| 0.159 |  | Cc1cc(F)ccc1-c1cnc2[nH]c(=O)n(CC(=O)NC3CC3)c2c1 [Example 36, N-Cyclopropyl-2-[6-(4-fluoro-2-methyl-phenyl)-2-oxo-3H-imidazo[4,5-b]pyridin-1-yl]acetamide] |
